In US5387610A, “Peptide derivatives of collagenase inhibitor” (Research Corporation Technologies, Inc., priority 1992, dated 1995) one finds IC50 data, which are given here for 6 molecules.

Test [1] addresses T1, Porcine synovial collagenase (Sus scrofa, UniProt P21692).
T1 construct: purified porcine synovial collagenase; from tissue; host or cells: pig synovium (synovial enzyme, purified)
T1 sequence (P21692 100-469): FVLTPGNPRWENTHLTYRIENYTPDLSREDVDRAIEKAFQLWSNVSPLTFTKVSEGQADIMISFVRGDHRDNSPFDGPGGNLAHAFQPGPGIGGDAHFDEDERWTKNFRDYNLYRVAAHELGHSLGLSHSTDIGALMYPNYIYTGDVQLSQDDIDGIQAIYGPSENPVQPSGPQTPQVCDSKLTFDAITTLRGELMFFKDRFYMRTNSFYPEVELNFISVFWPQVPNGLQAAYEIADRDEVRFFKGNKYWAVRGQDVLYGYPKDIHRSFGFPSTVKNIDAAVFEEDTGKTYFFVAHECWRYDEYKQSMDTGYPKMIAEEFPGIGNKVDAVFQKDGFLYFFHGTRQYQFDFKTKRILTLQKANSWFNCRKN
The test can be described thus: Porcine synovial collagenase activity with type I (calf skin) collagen, gel densitometry (PSC/CSC). The test is classed as biochemical. To be noted: acid-soluble calf skin collagen 0.8 μM, 35° C., pH 7.7; a range means 50% inhibition lay between the values; successive lines per compound = diastereomers, higher C18 mobility first. How it is done: Porcine synovial collagenase activity (PSC) was measured with type I collagen essentially as described by Darlak et al. (1990). Varying amounts of inhibitor were added to the acid-soluble calf skin collagen (0.8 μM) at 35° C. in 0.05M tris-HCl, 0.2M NaCl, 5 mM CaCl2, 0.25M glucose, pH 7.7. Collagen degradation was initiated by adding purified porcine synovial collagenase and the reactions were stopped by the addition of an equal volume of sample dilution buffer (Laemmli, 1970) followed by boiling for 2-3 min. Undegraded collagen was resolved from its degradation products by polyacrylamide slab gel electrophoresis as described by Laemmli (1970). The gels were fixed in isopropanol/acetic acid/water (100:40:300 v/v) and then stained with 1% Coomassie Blue R-250 in fixing solution. After destaining, the percentage of α1 chain converted to the corresponding TC fragment was estimated by densitometry using a Bio-Rad model 610 video densitometer. IC50 values were estimated from the dependence of the percent of collagen degraded on inhibitor concentration.

The target of a further test is T2, pig synovial collagenase (Sus scrofa, UniProt P21692).
T2 construct: purified porcine synovial collagenase; from tissue; host or cells: pig synovium (synovial enzyme, purified)
T2 sequence (P21692 100-469): T1 sequence (P21692 100-469)
The test can be described thus: Pig synovial collagenase with fluorogenic substrate FS-7 (PSC/FS-7). The test is classed as biochemical. To be noted: substrate Dnp-Pro-Leu-Gly-Leu-Trp-Ala-D-Arg-NH2; successive lines per compound = diastereomers, higher C18 mobility first. As to the method: [The source words this procedure for another target and reports this target under the same test.] Recombinant human fibroblast collagenase (rHFC) and porcine synovial gelatinase (PSG) were assayed at 37° C. by the procedure of Stack and Gray (1989). The fluorogenic metalloproteinase substrate Dnp-Pro-Leu-Gly-Leu-Trp-Ala-D-Arg-NH2 was dissolved at an initial concentration of 10 μM in 0.05M tris-HCl, 0.2M NaCl, 5 mM CaCl2, pH 7.7. Hydrolysis of the substrate at the Gly-Leu bond results in an increase in fluorescence that was monitored using an SLM-500C spectrofluorometer with excitation at 280 nm and emission at 346 nm. The reaction was initiated by addition of the enzyme; after determining the initial rate of substrate hydrolysis an aliquot of inhibitor was added and the inhibited rate redetermined. For lower affinity inhibitors (IC50>>[E0 ], where E0 is the enzyme concentration), inhibitor potencies were determined from plots of log (A0 /Ai-1) vs. log [Inhibitor], where A0 is the activity measured in the absence of inhibitor and Ai is that measured in the presence of inhibitor at concentration i (Ambrose et al., 1950). For high affinity inhibitors (IC50 =[E0 ]) only an upper limit of inhibitor potency could be estimated (Dixon and Webb, 1979).

What is called IC50 is the point on the concentration scale where inhibition reaches its midpoint.

Several values for one entry are separate records, joined by “and”; a condition that tells them apart may be missing. Identical values can stand only once.

Consider “H4[ONHCO]--DL--Leu I'-Hal--NH2 [Compound 7]”, for which the IC50 is 300 to 500 µM in test [1] and 280 µM against pig synovial collagenase.

Turning to “H4[ONHCO]--DL--Leu Trp--NH2 [Compound 2]”, the IC50 in test [1] amounted to 180 µM; at pig synovial collagenase, 370 µM.

As for “H4[ONHCO]--DL--Leu Hal Ala--NH2 [Compound 5]”, the values for the IC50 (in test [1]; against pig synovial collagenase) were 25 to 30 µM and 21 µM, respectively.

With “H4[ONHCO]--DL--Leu Phe--NH2 [Compound 1]”, the IC50 in test [1] was 250 µM; against pig synovial collagenase, 700 µM.

On to `CC(C)CC(C(=O)N[C@@H](Cc1ccccc1)C(=O)N[C@@H](C)C(N)=O)C(C)C(=O)NO` (single isomer, unassigned) [Compound 16, H4[ONHCOCH(CH3)]--DL--Leu Phe Ala--NH2], for which the half-maximal inhibitory concentration (IC50) in test [1] is 1 µM and > 3 µM.

Regarding “HO--NH--CO--CH2 --CH(CH2 CH(CH3)2 --CO--Nal--Pro--NH2 [Compound 12]”, the results for the half-maximal inhibitory concentration (IC50) (in test [1]; at pig synovial collagenase) were 1 to 3 µM and 1.1 µM, respectively.
